Source: PubChem BioAssay (NCI)
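Cells were grown in 96-well plates and exposed to each compound for 48 hours at five concentrations; endpoints were interpolated linearly between bracketing concentrations, or set to the highest concentration if not reached. GI50 marks 50% less growth. Definition used: TGI = concentration required for complete inhibition of growth.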

What was measured:
Test in all cases: NCI anticancer screen, dose series, 48 h; in the data active = GI50 below about 0.43 µM; inactive = the rest
SW-620 colon = system: SW-620 colon
MDA-MB-231 breast = system: MDA-MB-231 breast
SK-MEL-2 melanoma = system: SK-MEL-2 melanoma
SK-MEL-5 melanoma = system: SK-MEL-5 melanoma
OVCAR-5 ovarian = system: OVCAR-5 ovarian
COLO 205 colon = system: COLO 205 colon
CCRF-CEM leukemia = system: CCRF-CEM leukemia
DU-145 prostate = system: DU-145 prostate
SR leukemia = system: SR leukemia
M14 melanoma = system: M14 melanoma
HCT-116 colon = system: HCT-116 colon
SNB-19 CNS = system: SNB-19 CNS
KM12 colon = system: KM12 colon
NCI/ADR-RES ovarian = system: NCI/ADR-RES ovarian
HCC-2998 colon = system: HCC-2998 colon
SN12C renal = system: SN12C renal
HCT-15 colon = system: HCT-15 colon
IGROV1 ovarian = system: IGROV1 ovarian
SK-MEL-28 melanoma = system: SK-MEL-28 melanoma
MDA-N = system: MDA-N
NCI-H23 lung = system: NCI-H23 lung
NCI-H226 lung = system: NCI-H226 lung
RXF 393 renal = system: RXF 393 renal
EKVX NSCLC = system: EKVX NSCLC
PC-3 prostate = system: PC-3 prostate
UACC-62 melanoma = system: UACC-62 melanoma
MOLT-4 leukemia = system: MOLT-4 leukemia
T-47D breast = system: T-47D breast
OVCAR-3 ovarian = system: OVCAR-3 ovarian
ACHN renal = system: ACHN renal
BT-549 breast = system: BT-549 breast
HOP-92 NSCLC = system: HOP-92 NSCLC
NCI-H522 lung = system: NCI-H522 lung
MDA-MB-435 = system: MDA-MB-435
A549 NSCLC = system: A549 NSCLC
SF-539 CNS = system: SF-539 CNS
NCI-H460 lung = system: NCI-H460 lung
MCF7 breast = system: MCF7 breast
SK-OV-3 ovarian = system: SK-OV-3 ovarian
786-0 renal = system: 786-0 renal
MALME-3M melanoma = system: MALME-3M melanoma
HT29 colon = system: HT29 colon
HL-60(TB) leukemia = system: HL-60(TB) leukemia
UO-31 renal = system: UO-31 renal
LOX IMVI melanoma = system: LOX IMVI melanoma
SNB-75 CNS = system: SNB-75 CNS
HOP-62 NSCLC = system: HOP-62 NSCLC
UACC-257 melanoma = system: UACC-257 melanoma
K-562 leukemia = system: K-562 leukemia
HS 578T breast = system: HS 578T breast
SF-295 CNS = system: SF-295 CNS
RPMI-8226 leukemia = system: RPMI-8226 leukemia
OVCAR-4 ovarian = system: OVCAR-4 ovarian
TK-10 renal = system: TK-10 renal
OVCAR-8 ovarian = system: OVCAR-8 ovarian
A498 renal = system: A498 renal
SF-268 CNS = system: SF-268 CNS
CAKI-1 renal = system: CAKI-1 renal

C[C@@H]1CCC2[C@@H](C)[C@@H](OC3CCC(O)CC3)OC3O[C@@]4(C)CCC1[C@]32OO4 (stereo partly specified)
> 100 µM: TGI (SW-620 colon) | TGI (MDA-MB-231 breast) | TGI (SK-MEL-2 melanoma) | TGI (SK-MEL-5 melanoma) | TGI (OVCAR-5 ovarian) | TGI (CCRF-CEM leukemia) | TGI (DU-145 prostate) | TGI (SR leukemia) | TGI (M14 melanoma) | TGI (HCT-116 colon) | TGI (SNB-19 CNS) | TGI (KM12 colon) | TGI (NCI/ADR-RES ovarian) | TGI (HCC-2998 colon) | TGI (SN12C renal) | TGI (HCT-15 colon) | TGI (IGROV1 ovarian) | TGI (SK-MEL-28 melanoma) | TGI (MDA-N) | TGI (NCI-H23 lung) | TGI (NCI-H226 lung) | TGI (RXF 393 renal) | TGI (EKVX NSCLC) | TGI (PC-3 prostate) | TGI (UACC-62 melanoma) | TGI (MOLT-4 leukemia) | TGI (T-47D breast) | TGI (OVCAR-3 ovarian) | TGI (ACHN renal) | TGI (BT-549 breast) | TGI (HOP-92 NSCLC) | TGI (NCI-H522 lung) | TGI (MDA-MB-435) | TGI (A549 NSCLC) | TGI (SF-539 CNS) | TGI (NCI-H460 lung) | TGI (MCF7 breast) | TGI (SK-OV-3 ovarian) | TGI (786-0 renal) | TGI (MALME-3M melanoma) | TGI (HT29 colon) | TGI (HL-60(TB) leukemia) | TGI (UO-31 renal) | TGI (LOX IMVI melanoma) | TGI (SNB-75 CNS) | TGI (HOP-62 NSCLC) | TGI (UACC-257 melanoma) | TGI (K-562 leukemia) | TGI (HS 578T breast) | TGI (SF-295 CNS) | TGI (RPMI-8226 leukemia) | TGI (OVCAR-4 ovarian) | TGI (TK-10 renal) | TGI (OVCAR-8 ovarian) | TGI (A498 renal) | TGI (SF-268 CNS) | TGI (CAKI-1 renal)
inactive: GI50 (SW-620 colon) > 100 µM | GI50 (MDA-MB-231 breast) > 100 µM | GI50 (SK-MEL-2 melanoma) 92.6 µM | GI50 (SK-MEL-5 melanoma) 36.3 µM | GI50 (OVCAR-5 ovarian) 82.4 µM | GI50 (COLO 205 colon) 8.83 µM | GI50 (CCRF-CEM leukemia) 37.8 µM | GI50 (DU-145 prostate) > 100 µM | GI50 (SR leukemia) 7.84 µM | GI50 (M14 melanoma) > 100 µM | GI50 (HCT-116 colon) 71.2 µM | GI50 (SNB-19 CNS) > 100 µM | GI50 (KM12 colon) 51.6 µM | GI50 (NCI/ADR-RES ovarian) 39.9 µM | GI50 (HCC-2998 colon) > 100 µM | GI50 (SN12C renal) > 100 µM | GI50 (HCT-15 colon) 3.61 µM | GI50 (IGROV1 ovarian) > 100 µM | GI50 (SK-MEL-28 melanoma) > 100 µM | GI50 (MDA-N) > 100 µM | GI50 (NCI-H23 lung) 96.7 µM | GI50 (NCI-H226 lung) > 100 µM | GI50 (RXF 393 renal) > 100 µM | GI50 (EKVX NSCLC) 32.5 µM | GI50 (PC-3 prostate) 23.9 µM | GI50 (UACC-62 melanoma) 72 µM | GI50 (MOLT-4 leukemia) 10.1 µM | GI50 (T-47D breast) 19.9 µM | GI50 (OVCAR-3 ovarian) 66.7 µM | GI50 (ACHN renal) 67.2 µM | GI50 (BT-549 breast) > 100 µM | GI50 (HOP-92 NSCLC) 23.1 µM | GI50 (NCI-H522 lung) 38.5 µM | GI50 (MDA-MB-435) > 100 µM | GI50 (A549 NSCLC) 67.1 µM | GI50 (SF-539 CNS) > 100 µM | GI50 (NCI-H460 lung) > 100 µM | GI50 (MCF7 breast) 38.5 µM | GI50 (SK-OV-3 ovarian) > 100 µM | GI50 (786-0 renal) > 100 µM | GI50 (MALME-3M melanoma) > 100 µM | GI50 (HT29 colon) 97.4 µM | GI50 (HL-60(TB) leukemia) 4.35 µM | GI50 (UO-31 renal) 6.3 µM | GI50 (LOX IMVI melanoma) 24.5 µM | GI50 (SNB-75 CNS) > 100 µM | GI50 (HOP-62 NSCLC) > 100 µM | GI50 (UACC-257 melanoma) > 100 µM | GI50 (K-562 leukemia) 26.8 µM | GI50 (HS 578T breast) 90.2 µM | GI50 (SF-295 CNS) 45.8 µM | GI50 (RPMI-8226 leukemia) 7.04 µM | GI50 (OVCAR-4 ovarian) 46.4 µM | GI50 (TK-10 renal) 36.8 µM | GI50 (OVCAR-8 ovarian) 16.1 µM | GI50 (A498 renal) > 100 µM | GI50 (SF-268 CNS) 76.5 µM | GI50 (CAKI-1 renal) 95.9 µM
32.7 µM: TGI (COLO 205 colon)
